The values below come from patent US20200078404A1, “COMBINATION OF A CELL THERAPY AND AN IMMUNOMODULATORY COMPOUND” (Juno Therapeutics, Inc., priority 2017, published 2020).

This series has as its system OPM-2-luciferase tumor. In words: OPM-2 orthotopic xenograft mouse model, Study 2 (concurrent or delayed lenalidomide). The format is in vivo. Here is the method: In a further study, NOD/Scid/gc^−/− (NSG) mice were injected (i.v.) with OPM-2-luciferase cells as described in Study 1 above and allowed to engraft for 14 days prior to CAR-T (or mock) cell; infusion (i.v.).
At 14 days after tumor cell injection (day 0), a subtherapeutic dose of CAR+ T cells (1×10^6 CAR-T cells (generated from two different donors)) or mock control cells was injected intravenously. Data are presented as mean±SEM. For in vivo survival, a Gehan-Breslow-Wilcoxon test was used to compare groups.
FIG. 10E depicts the results of tumor burden assessment through day 60, as analyzed by the bioluminescence […]. […] P values were obtained by likelihood ratio tests comparing the full model with the effect of interest against the model without the effect of interest.
Blood from the treated mice was collected for CAR-T pharmacokinetic analysis, and cells were stained with antibodies to exclude mouse-specific cells (H2-kd, TER119, and muCD45) and analyzed by flow cytometry. Cells were gated on CD45+CD3+CAR+ and the cells per microliter of blood was determined. For pharmacokinetic measurements, each time point was analyzed by one-way ANOVA and Tukey post-hoc test. FIGS. 10G and 10H show the flow cytometric analysis of mock control cells and CAR-T cells in the blood of the mice at days 8, 14, 22, and 28 following injection of the CAR-T cells from two donors.

For the compound `Nc1cccc2c1CN(C1CCC(=O)NC1=O)C2=O` (stereo not shown) [lenalidomide, 3-(4-amino-1-oxo-1,3-dihydro-2H-isoindol-2-yl)piperidine-2,6-dione], the “tumor growth and tumor burden” value (added to subtherapeutic CAR+ T cells from both donors, through day 60) was “slower tumor growth and reduced tumor burden”. The “CAR T counts in the peripheral blood” value (concurrent lenalidomide, after 7 days, not at later time points) is recorded as “increased CAR T counts in the peripheral blood”. For the setting “concurrent lenalidomide, donor 1, vs vehicle with anti-BCMA CAR T”, the tumor burden result is listed as “significant decrease in tumor burden”. Further, where the note is “concurrent lenalidomide, donor 1 and donor 2”, the survival entry is “increased survival”.
